Tests used:
[1] = tested on: dopaminergic neurons of primary culture of rat embryo mesencephalon treated with MPP+; test: Neuroprotection in primary culture of rat embryo mesencephalon treated with MPP+ (count of tyrosine hydroxylase expressing cells); type: cell-based; details: recombinant human BDNF 10 ng/mL = 100%, 2 days with MPP+
Outline: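 Rat embryo (E15) mesencephalon cultures, 5 days, then MPP+ with or without compound on day 6 for 2 days. Tyrosine hydroxylase-immunolabelled cells counted by image analysis; activity expressed as percent of recombinant human BDNF (10 ng/mL) reference, set at 100%.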

NURR-1/RXRγ = target: T1, NURR-1/RXRγ (Homo sapiens, UniProt P48443); test: Transactivation test, NURR-1-Gal4/RXRγ, luciferase reporter in Cos-7 cells; type: cell-based
T1 construct: expressed in transfected cells; host or cells: Cos-7 cells
T1 sequence (P48443 whole entry, the tested form may be a part): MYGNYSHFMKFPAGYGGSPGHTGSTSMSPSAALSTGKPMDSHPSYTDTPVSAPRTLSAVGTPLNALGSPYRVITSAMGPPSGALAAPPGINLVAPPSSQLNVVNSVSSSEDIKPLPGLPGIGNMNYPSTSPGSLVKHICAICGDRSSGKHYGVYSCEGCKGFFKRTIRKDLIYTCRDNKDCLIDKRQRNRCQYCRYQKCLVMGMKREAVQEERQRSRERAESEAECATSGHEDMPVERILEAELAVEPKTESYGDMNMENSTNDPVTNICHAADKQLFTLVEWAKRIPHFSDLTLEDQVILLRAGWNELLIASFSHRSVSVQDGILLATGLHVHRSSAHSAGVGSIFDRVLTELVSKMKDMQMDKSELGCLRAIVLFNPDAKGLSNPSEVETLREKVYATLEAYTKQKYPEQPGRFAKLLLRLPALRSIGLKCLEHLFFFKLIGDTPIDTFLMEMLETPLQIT
T1 sequence (P43354 whole entry partner, the tested form may be a part): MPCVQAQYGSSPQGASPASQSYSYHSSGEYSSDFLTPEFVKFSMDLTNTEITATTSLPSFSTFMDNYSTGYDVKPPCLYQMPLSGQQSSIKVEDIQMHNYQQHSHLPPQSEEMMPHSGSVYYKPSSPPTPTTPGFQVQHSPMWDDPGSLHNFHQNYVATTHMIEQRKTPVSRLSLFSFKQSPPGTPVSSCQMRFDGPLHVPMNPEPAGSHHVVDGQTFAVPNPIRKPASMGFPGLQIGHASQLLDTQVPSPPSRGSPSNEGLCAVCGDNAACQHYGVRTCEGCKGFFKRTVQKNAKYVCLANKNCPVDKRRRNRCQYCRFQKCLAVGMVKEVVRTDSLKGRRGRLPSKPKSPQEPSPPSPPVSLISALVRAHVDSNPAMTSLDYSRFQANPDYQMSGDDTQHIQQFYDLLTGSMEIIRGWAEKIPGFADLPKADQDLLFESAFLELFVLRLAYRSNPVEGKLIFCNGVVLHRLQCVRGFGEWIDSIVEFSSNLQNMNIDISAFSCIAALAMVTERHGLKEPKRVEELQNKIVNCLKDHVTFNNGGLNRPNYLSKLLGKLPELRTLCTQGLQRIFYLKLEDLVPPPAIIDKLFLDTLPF
T1 sequence (P04386 1-147 partner limits assumed): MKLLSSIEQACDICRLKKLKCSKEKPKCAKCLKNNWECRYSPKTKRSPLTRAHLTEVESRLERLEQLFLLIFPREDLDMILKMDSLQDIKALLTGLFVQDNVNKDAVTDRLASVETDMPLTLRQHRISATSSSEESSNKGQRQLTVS

[2] = Plasma pharmacokinetics in mice after oral administration; type: in vivo; details: mouse, male C57/Bl6 mice, oral 10 mg/kg
Outline: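 Male C57/B16 mice (25-30 g, fed, 9 per dose) received 10 mg/kg by oral gavage as a suspension in 1% methylcellulose 400 cps/0.1% Poloxamer 188/water. Plasma was sampled at 15 min, 30 min, 1 h, 3 h and 7 h and quantified by LC-MS/MS after protein precipitation. Parameters were derived non-compartmentally, with AUC by the log-linear trapezoidal method.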

[3] = Brain penetration in rats after intravenous administration; type: in vivo; details: rat
Protocol: Three series of in vivo tests were carried out with compounds representative of the invention, for the purpose of determining their pharmacokinetic plasma profile and their brain penetration.
2. Study of the Brain Penetration in Rats After Intravenous Administration
Male Wistar rats (250-300 g) originating from the establishment Janvier, Le Genest-St-Isle, France were used for this study (4 rats per study). The animals were fed with standard feed for rodents (Purina Mills, St. Louis, Mo.), placed in cages and subjected to light/darkness cycles of 12 h/12 h, the room temperature being maintained at 22±2° C. and the humidity level at 55±10%. The rats were not deprived food before the administration. Water was provided at will throughout the study.
The test compound was administered intravenously at 4 mg/kg by infusion into the jugular vein for 4 hours. For the intravenous administration, the animals were infused with 12 mL/kg of a solution of the test compound, prepared in 2% Cremophor EL/0.9% NaCl.
The animals were sacrificed under anesthesia after 4 hours of infusion. The blood and the brain were collected from each sacrificed animal 0.5 mL of blood collected in 1.5 mL tubes containing 20 μL of evaporated anticoagulant (solution of sodium heparinate at 1000 IU/mL) was centrifuged at 4500 g for 3 min in order to obtain approximately 200 μL of plasma. The plasma was divided up into 2 aliquots of 70 μL minimum, which were stored at −20° C. until they were treated by protein precipitation and then analysis by liquid chromatography coupled to tandem mass spectrometry (LC-MS/MS) in order to quantify the compound tested.
The brains were immersed in liquid nitrogen directly after they were removed, then stored at −20° C. for analysis. The brains were then ground in the presence of an aqueous/organic solvent mixture in order to obtain a homogenate. These homogenates were then centrifuged and the compound tested was extracted from the supernatant obtained, by liquid-liquid extraction, and then quantified by LC-MS/MS.
The brain penetration in the rats is represented by the Kp, which is the partition coefficient between the brain and the plasma. It is calculated by the ratio of the concentration measured in the brain (Cmax brain) and the plasma (Cmax plasma) after the 4 hours of infusion.

NURR-1/RXRα = target: T2, NURR-1/RXRα (Homo sapiens, UniProt P19793); test: Transactivation test, NURR-1-Gal4/RXRα, luciferase reporter in Cos-7 cells; type: cell-based
T2 construct: expressed in transfected cells; host or cells: Cos-7 cells
T2 sequence (P19793 whole entry, the tested form may be a part): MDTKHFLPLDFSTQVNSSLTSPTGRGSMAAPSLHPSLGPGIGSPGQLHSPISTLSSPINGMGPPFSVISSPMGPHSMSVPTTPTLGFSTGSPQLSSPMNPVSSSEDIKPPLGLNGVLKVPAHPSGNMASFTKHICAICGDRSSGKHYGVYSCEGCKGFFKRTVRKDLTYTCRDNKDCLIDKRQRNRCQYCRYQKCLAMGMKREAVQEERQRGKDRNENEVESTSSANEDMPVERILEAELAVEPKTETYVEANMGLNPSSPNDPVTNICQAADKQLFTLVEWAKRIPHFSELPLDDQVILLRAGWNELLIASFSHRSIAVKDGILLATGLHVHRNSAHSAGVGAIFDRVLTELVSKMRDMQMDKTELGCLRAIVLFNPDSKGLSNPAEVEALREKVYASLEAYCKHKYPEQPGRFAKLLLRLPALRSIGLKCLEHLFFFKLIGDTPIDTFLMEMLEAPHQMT
T2 sequence (P43354 whole entry partner, the tested form may be a part): as the sequence (P43354 whole entry partner, the tested form may be a part) above
T2 sequence (P04386 1-147 partner limits assumed): as the sequence (P04386 1-147 partner limits assumed) above

Structure (SMILES): Cc1nnc(COc2ccc(C(F)(F)F)cc2-c2cccc(N3CC(C(=O)O)C3)c2)o1 [Example 110, 1-[3-[2-[(5-methyl-1,3,4-oxadiazol-2-yl)methoxy]-5-(trifluoromethyl)phenyl]phenyl]azetidine-3-carboxylic acid]
- percentage of activity relative to the BDNF reference ([1]; compound 1 μM): 74%
- percentage of activity relative to the BDNF reference ([1]; compound 10 μM): 102%
- Emax (NURR-1/RXRγ; COS-7, induction level relative to reference XCT0135908 at 2×10^−5 M (=100%), read-out: hNurr1_RXRgFL Emax (%)): 32%
- EC50 (NURR-1/RXRγ; Cos-7 cells, NURR-1-Gal4/RXRγ, luciferase reporter, read-out: hNurr1_RXRgFL EC50): 1720 nM
- AUC ([2]; sampling 15 min to 7 h, log-linear trapezoidal method, read-out: AUCplasma): 40100 ng·h/mL
- Cmax ([2]; suspension in 1% methylcellulose/0.1% Poloxamer 188): 8710 ng/mL
- Kp at 4 h ([3]; male, Wistar, intravenous, 4 mg/kg, ratio of Cmax brain to Cmax plasma after the 4 hours of infusion, rats, read-out: Kp (partition coefficient between the brain and the plasma)): 0.2
- Cmax at 4 h ([3]; male Wistar rats, 4 mg/kg iv infusion into the jugular vein for 4 hours, plasma at end of infusion): 10100 ng/mL
- Emax (NURR-1/RXRα; COS-7, induction level relative to reference XCT0135908 at 2×10^−5 M (=100%), read-out: hNurr1_RXRaFL Emax (%)): 49%
- EC50 (NURR-1/RXRα; Cos-7 cells, NURR-1-Gal4/RXRα, luciferase reporter, read-out: hNurr1_RXRaFL EC50): 1510 nM

From US20170066717A1, “NEW PHENYLAZETIDINECARBOXYLATE OR -CARBOXAMIDE COMPOUNDS” (INVENTIVA, priority 2014, published 2017)
